{"source": "ChEMBL document CHEMBL4364276", "about": "“Discovery of 4-phenyl-2H-benzo[b][1,4]oxazin-3(4H)-one derivatives as potent and orally active PI3K/mTOR dual inhibitors” (Eur J Med Chem, 2019)", "key": {"[1]": {"target": "[Pyruvate dehydrogenase (acetyl-transferring)] kinase isozyme 4, mitochondrial (Homo sapiens) (UniProt Q16654)", "assay": "Inhibition of human PDK4 at 100 nM using MBP as substrate by [gamma-33P]-ATP assay"}, "[2]": {"target": "Dual specificity protein kinase CLK3 (Homo sapiens) (UniProt P49761)", "assay": "Inhibition of human CLK3 at 100 nM using MBP as substrate by [gamma-33P]-ATP assay"}, "[3]": {"target": "Serine/threonine-protein kinase 32B (Homo sapiens) (UniProt Q9NY57)", "assay": "Inhibition of human STK32B at 100 nM using MBP as substrate by [gamma-33P]-ATP assay"}, "[4]": {"test_system": "A549", "assay": "Antitumor activity against human A549 cells xenografted in BALB/c nude mouse assessed as tumor growth inhibition at 40 mg/kg, ig administered for 30 days measured every 3 days during compound dosing relative to control", "format": "functional", "conditions": "A549, po, read-out: TGI"}, "[5]": {"target": "Cyclin-C/Cyclin-dependent kinase 19 (Homo sapiens) (UniProt Q9BWU1+P24863)", "assay": "Inhibition of human CDK19/cyclin-C at 100 nM using RB protein as substrate by [gamma-33P]-ATP assay", "format": "protein-complex assay"}, "[6]": {"target": "G protein-coupled receptor kinase 3 (Homo sapiens) (UniProt P35626)", "assay": "Inhibition of human GRK3 at 100 nM using casein as substrate by [gamma-33P]-ATP assay"}, "[7]": {"target": "Testis-specific serine/threonine-protein kinase 3 (Homo sapiens) (UniProt Q96PN8)", "assay": "Inhibition of human TSSK3 at 100 nM using KKKVSRSGLYRSPSMPENLNRPR as substrate by [gamma-33P]-ATP assay"}, "[8]": {"test_system": "A549", "assay": "Antitumor activity against human A549 cells xenografted in ig dosed BALB/c nude mouse assessed as tumor growth inhibition administered for 30 days measured every 3 days during compound dosing relative to control", "format": "functional, organism-based"}, "[9]": {"target": "Serine/threonine-protein kinase Sgk3 (Homo sapiens) (UniProt Q96BR1)", "sequence (Q96BR1 whole entry)": "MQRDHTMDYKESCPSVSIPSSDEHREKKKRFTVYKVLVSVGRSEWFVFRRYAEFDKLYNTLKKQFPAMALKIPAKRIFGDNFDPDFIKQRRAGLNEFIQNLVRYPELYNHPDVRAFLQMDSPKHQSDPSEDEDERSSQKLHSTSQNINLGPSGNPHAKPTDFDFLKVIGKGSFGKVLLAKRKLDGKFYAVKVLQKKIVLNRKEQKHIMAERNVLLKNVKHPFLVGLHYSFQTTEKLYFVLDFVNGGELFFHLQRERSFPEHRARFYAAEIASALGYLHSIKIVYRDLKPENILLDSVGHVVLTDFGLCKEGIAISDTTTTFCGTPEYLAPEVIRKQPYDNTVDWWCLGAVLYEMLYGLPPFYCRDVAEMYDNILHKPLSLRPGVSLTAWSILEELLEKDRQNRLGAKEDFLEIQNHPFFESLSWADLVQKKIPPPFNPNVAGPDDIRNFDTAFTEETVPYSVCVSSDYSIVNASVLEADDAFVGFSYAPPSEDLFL", "assay": "Inhibition of human SGK3 at 100 nM using GRPRTSSFAEG as substrate by [gamma-33P]-ATP assay"}, "[10]": {"species": "Homo sapiens", "assay": "Inhibition of human AMPK (A2/B1/G1) at 100 nM using HMRSAMSGLHLVKRR as substrate by [gamma-33P]-ATP assay"}, "[11]": {"target": "Serine/threonine-protein kinase OSR1 (Homo sapiens) (UniProt O95747)", "assay": "Inhibition of human OSR1 at 100 nM using RRHYYYDTHTNTYYLRTFGHNTRR as substrate by [gamma-33P]-ATP assay"}, "[12]": {"target": "SRSF protein kinase 3 (Homo sapiens) (UniProt Q9UPE1)", "sequence (Q9UPE1 whole entry)": "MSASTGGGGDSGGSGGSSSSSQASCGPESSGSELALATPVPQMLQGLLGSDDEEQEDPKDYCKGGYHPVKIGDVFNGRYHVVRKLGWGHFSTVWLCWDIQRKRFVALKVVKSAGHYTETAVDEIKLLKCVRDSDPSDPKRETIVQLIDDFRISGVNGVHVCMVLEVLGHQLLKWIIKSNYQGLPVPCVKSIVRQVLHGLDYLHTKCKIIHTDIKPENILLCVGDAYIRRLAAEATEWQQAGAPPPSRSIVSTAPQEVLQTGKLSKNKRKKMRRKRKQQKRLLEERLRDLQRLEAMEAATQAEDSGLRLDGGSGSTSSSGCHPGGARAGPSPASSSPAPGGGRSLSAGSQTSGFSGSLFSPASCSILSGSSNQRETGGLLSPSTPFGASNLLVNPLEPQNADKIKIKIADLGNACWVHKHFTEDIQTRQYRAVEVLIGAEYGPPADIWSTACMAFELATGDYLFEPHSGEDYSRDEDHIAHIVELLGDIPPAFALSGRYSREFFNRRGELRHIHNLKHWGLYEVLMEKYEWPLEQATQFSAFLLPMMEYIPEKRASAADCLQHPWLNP", "assay": "Inhibition of human MSSK1 at 100 nM using GRSRSRSRSR as substrate by [gamma-33P]-ATP assay"}, "[13]": {"target": "Tyrosine-protein kinase ABL2 (Homo sapiens) (UniProt P42684)", "assay": "Inhibition of human ABL2 at 100 nM using EAIYAAPFAKKK as substrate by [gamma-33P]-ATP assay"}, "[14]": {"target": "Tyrosine-protein kinase ITK/TSK (Homo sapiens) (UniProt Q08881)", "assay": "Inhibition of human ITK at 100 nM using MBP as substrate by [gamma-33P]-ATP assay"}, "[15]": {"target": "Receptor-interacting serine/threonine-protein kinase 2 (Homo sapiens) (UniProt O43353)", "assay": "Inhibition of human RIPK2 at 100 nM using MBP as substrate by [gamma-33P]-ATP assay"}, "[16]": {"target": "Serine/threonine-protein kinase SBK1 (Homo sapiens) (UniProt Q52WX2)", "assay": "Inhibition of human SBK1 at 100 nM using LCGRTGRRNSI as substrate by [gamma-33P]-ATP assay"}, "[17]": {"target": "Protein kinase C eta type (Homo sapiens) (UniProt P24723)", "assay": "Inhibition of human PKCeta at 100 nM using ERMRPRKRQGSVRRRV as substrate by [gamma-33P]-ATP assay"}, "[18]": {"target": "TRAF2 and NCK-interacting protein kinase (Homo sapiens) (UniProt Q9UKE5)", "assay": "Inhibition of human TNIK at 100 nM using RLGRDKYKTLRQIRQ as substrate by [gamma-33P]-ATP assay"}, "[19]": {"target": "Serine/threonine-protein kinase WNK1 (Homo sapiens) (UniProt Q9H4A3)", "assay": "Inhibition of human WNK1 at 100 nM using MBP as substrate by [gamma-33P]-ATP assay"}, "[20]": {"target": "Non-receptor tyrosine-protein kinase TNK1 (Homo sapiens) (UniProt Q13470)", "assay": "Inhibition of human TNK1 at 100 nM using poly[Glu:Tyr] (4:1) as substrate by [gamma-33P]-ATP assay"}, "[21]": {"assay": "Tmax in Sprague-Dawley rat at 10 mg/kg, po measured upto 24 hrs by LC-MS/MS analysis", "format": "ADME, organism-based", "conditions": "in vivo"}, "[22]": {"target": "Serine/threonine-protein kinase VRK2 (Homo sapiens) (UniProt Q86Y07)", "sequence (Q86Y07 whole entry)": "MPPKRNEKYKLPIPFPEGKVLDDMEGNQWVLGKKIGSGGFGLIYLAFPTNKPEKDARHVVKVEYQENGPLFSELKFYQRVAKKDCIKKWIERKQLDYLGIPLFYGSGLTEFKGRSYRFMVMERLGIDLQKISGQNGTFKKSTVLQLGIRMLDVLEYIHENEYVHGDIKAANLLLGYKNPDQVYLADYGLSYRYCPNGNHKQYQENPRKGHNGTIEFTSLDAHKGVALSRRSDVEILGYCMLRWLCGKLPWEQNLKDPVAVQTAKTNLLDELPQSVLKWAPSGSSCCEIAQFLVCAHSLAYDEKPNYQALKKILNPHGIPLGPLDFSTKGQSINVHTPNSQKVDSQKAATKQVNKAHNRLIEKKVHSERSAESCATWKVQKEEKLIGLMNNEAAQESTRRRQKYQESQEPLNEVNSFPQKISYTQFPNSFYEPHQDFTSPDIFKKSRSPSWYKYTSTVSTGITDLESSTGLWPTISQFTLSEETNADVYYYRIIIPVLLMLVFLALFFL", "assay": "Inhibition of human VRK2 at 100 nM using casein as substrate by [gamma-33P]-ATP assay"}, "[23]": {"target": "Phosphatidylinositol 4,5-bisphosphate 3-kinase catalytic subunit gamma isoform (Homo sapiens, UniProt P48736)", "sequence (P48736 whole entry, the tested form may be a part, canonical isoform)": "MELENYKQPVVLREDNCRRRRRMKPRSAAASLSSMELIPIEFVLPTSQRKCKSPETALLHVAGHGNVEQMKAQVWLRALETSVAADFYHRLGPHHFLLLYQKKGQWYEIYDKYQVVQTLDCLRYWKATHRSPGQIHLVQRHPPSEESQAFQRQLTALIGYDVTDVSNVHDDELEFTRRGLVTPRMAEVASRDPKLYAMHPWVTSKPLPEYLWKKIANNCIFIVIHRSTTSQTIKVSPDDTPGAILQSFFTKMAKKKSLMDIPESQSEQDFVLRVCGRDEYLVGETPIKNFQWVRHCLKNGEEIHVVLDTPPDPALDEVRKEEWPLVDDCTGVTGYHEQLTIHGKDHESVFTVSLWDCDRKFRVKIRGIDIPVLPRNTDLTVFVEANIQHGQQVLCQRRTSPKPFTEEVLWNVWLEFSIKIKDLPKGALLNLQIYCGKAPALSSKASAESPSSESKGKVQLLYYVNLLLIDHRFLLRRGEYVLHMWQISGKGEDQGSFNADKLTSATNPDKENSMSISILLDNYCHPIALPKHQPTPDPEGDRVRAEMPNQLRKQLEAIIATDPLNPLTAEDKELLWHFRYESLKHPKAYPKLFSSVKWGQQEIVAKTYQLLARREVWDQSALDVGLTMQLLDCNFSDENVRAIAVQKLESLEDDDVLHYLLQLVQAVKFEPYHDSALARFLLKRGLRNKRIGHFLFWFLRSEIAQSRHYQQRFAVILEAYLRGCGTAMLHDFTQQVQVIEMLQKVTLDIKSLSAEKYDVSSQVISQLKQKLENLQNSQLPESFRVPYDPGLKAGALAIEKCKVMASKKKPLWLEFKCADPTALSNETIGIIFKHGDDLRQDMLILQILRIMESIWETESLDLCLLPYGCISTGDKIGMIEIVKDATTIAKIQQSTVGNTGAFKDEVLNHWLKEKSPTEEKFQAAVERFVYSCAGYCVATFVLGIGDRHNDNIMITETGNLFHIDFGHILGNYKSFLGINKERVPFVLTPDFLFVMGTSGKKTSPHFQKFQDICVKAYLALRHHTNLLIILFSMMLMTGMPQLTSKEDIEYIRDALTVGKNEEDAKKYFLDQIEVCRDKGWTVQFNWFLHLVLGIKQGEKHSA", "assay": "Inhibition of recombinant human full length N-terminal DYKDDDDK-tagged PI3Kgamma (1 to 1102 residues) expressed in baculovirus expression system using PIP2 as substrate incubated for 2 hrs by ADP-Glo assay"}, "[24]": {"target": "Dual specificity protein kinase CLK1 (Homo sapiens) (UniProt P49759)", "assay": "Inhibition of human CLK1 at 100 nM using MBP as substrate by [gamma-33P]-ATP assay"}, "[25]": {"target": "NT-3 growth factor receptor (Homo sapiens) (UniProt Q16288)", "assay": "Inhibition of human TRKC at 100 nM using poly[Glu:Tyr] (4:1) as substrate by [gamma-33P]-ATP assay"}, "[26]": {"target": "Hepatocyte growth factor receptor (Homo sapiens) (UniProt P08581)", "sequence (P08581 whole entry)": "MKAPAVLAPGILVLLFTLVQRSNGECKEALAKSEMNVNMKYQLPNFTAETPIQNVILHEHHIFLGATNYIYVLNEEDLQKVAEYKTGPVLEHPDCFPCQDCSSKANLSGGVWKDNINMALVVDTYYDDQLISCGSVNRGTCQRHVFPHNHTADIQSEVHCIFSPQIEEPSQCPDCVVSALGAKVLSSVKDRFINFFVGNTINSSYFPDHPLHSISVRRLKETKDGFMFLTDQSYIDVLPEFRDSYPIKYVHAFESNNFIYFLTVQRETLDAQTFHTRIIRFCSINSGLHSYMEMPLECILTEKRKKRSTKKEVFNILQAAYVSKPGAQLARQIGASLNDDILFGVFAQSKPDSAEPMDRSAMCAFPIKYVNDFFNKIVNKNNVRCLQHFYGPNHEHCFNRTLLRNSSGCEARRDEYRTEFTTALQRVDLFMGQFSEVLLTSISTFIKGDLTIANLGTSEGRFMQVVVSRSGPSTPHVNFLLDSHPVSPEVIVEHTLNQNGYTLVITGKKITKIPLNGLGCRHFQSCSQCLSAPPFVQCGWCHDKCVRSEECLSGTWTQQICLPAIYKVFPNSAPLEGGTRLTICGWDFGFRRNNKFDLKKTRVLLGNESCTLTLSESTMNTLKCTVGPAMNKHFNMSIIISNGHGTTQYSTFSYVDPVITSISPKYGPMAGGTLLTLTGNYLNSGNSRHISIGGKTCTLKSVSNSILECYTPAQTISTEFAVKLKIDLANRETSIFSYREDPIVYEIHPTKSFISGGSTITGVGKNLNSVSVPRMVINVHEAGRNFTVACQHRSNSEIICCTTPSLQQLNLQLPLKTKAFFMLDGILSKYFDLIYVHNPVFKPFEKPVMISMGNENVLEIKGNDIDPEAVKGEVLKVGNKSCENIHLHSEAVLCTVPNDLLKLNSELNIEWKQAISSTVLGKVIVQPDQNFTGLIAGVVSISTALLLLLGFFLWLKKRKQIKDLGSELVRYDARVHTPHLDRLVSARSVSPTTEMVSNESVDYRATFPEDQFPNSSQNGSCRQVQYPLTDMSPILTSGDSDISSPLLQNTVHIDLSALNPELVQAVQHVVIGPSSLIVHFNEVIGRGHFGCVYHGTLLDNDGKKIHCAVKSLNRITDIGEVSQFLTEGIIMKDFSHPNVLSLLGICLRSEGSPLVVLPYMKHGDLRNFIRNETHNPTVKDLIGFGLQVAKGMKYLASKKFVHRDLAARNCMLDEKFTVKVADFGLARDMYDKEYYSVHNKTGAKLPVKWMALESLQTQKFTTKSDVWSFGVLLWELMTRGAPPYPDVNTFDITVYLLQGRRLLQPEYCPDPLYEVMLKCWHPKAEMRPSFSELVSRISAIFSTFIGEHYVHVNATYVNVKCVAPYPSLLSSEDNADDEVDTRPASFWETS", "assay": "Inhibition of human c-MET at 100 nM using KKKSPGEYVNIEFG as substrate by [gamma-33P]-ATP assay"}, "[27]": {"target": "Mitogen-activated protein kinase kinase kinase 9 (Homo sapiens) (UniProt P80192)", "assay": "Inhibition of human MLK1 at 100 nM using casein as substrate by [gamma-33P]-ATP assay"}, "[28]": {"target": "Mitogen-activated protein kinase 7 (Homo sapiens) (UniProt Q13164)", "sequence (Q13164 2-816 limits assumed)": "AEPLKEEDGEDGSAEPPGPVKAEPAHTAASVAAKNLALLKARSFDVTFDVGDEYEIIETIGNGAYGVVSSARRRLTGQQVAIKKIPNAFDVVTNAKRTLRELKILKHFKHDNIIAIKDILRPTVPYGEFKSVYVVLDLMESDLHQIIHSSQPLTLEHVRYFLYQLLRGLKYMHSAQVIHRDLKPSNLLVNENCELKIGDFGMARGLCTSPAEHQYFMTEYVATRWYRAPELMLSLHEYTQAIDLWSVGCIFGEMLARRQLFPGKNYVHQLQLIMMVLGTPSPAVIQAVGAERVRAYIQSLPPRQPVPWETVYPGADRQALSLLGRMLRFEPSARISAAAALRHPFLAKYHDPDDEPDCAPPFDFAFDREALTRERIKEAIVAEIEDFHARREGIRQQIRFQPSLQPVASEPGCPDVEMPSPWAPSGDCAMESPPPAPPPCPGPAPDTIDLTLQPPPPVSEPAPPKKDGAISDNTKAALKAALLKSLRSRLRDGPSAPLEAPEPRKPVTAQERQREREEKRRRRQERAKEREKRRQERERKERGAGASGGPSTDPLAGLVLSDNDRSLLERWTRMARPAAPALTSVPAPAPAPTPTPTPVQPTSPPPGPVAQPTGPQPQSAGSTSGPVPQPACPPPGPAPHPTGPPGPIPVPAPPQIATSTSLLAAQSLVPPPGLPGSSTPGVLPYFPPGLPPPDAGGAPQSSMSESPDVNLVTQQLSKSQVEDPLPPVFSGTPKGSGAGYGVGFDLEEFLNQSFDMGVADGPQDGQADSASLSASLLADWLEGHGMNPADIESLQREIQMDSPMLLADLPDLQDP", "assay": "Inhibition of human ERK5 at 100 nM using MBP as substrate by [gamma-33P]-ATP assay"}, "[29]": {"target": "Serine/threonine-protein kinase B-raf (Homo sapiens) (UniProt P15056)", "assay": "Inhibition of human BRAF at 100 nM using MEK1 (K97R) as substrate by [gamma-33P]-ATP assay"}, "[30]": {"target": "Serine/threonine-protein kinase MAK (Homo sapiens) (UniProt P20794)", "assay": "Inhibition of human MAK at 100 nM using MBP as substrate by [gamma-33P]-ATP assay"}, "[31]": {"target": "Serine/threonine-protein kinase Nek5 (Homo sapiens) (UniProt Q6P3R8)", "assay": "Inhibition of human NEK5 at 100 nM using MBP as substrate by [gamma-33P]-ATP assay"}}, "data": [{"smiles": "COc1ccc(N2C(=O)COc3ccc(-c4cnc(OC)c(NS(=O)(=O)c5ccc(F)cc5)c4)cc32)cc1", "values": [{"measurement": "inhibition", "setting": "[1]", "result": -4.54, "unit": "%"}, {"measurement": "inhibition", "setting": "[2]", "result": 7.47, "unit": "%"}, {"measurement": "inhibition", "setting": "[3]", "result": -3.89, "unit": "%"}, {"measurement": "inhibition in vivo at 40 mg/kg", "setting": "[4]", "result": 70.2, "unit": "%"}, {"measurement": "inhibition", "setting": "[5]", "result": 4.5, "unit": "%"}, {"measurement": "inhibition", "setting": "[6]", "result": -4.85, "unit": "%"}, {"measurement": "inhibition", "setting": "[7]", "result": -8.01, "unit": "%"}, {"measurement": "TGI", "setting": "[8]", "result": "Dose-dependent effect"}, {"measurement": "inhibition", "setting": "[9]", "result": 3.8, "unit": "%"}, {"measurement": "inhibition", "setting": "[10]", "result": -3.88, "unit": "%"}, {"measurement": "inhibition", "setting": "[11]", "result": 4.85, "unit": "%"}, {"measurement": "inhibition", "setting": "[12]", "result": 8.87, "unit": "%"}, {"measurement": "inhibition", "setting": "[13]", "result": -2.65, "unit": "%"}, {"measurement": "inhibition", "setting": "[14]", "result": -1.21, "unit": "%"}, {"measurement": "inhibition", "setting": "[15]", "result": 14.2, "unit": "%"}, {"measurement": "inhibition", "setting": "[16]", "result": 7.68, "unit": "%"}, {"measurement": "inhibition", "setting": "[17]", "result": 18, "unit": "%"}, {"measurement": "inhibition", "setting": "[18]", "result": 15.6, "unit": "%"}, {"measurement": "inhibition", "setting": "[19]", "result": 13.9, "unit": "%"}, {"measurement": "inhibition", "setting": "[20]", "result": 10.7, "unit": "%"}, {"measurement": "Tmax", "setting": "[21]", "result": 2.67, "unit": "h"}, {"measurement": "inhibition", "setting": "[22]", "result": 7, "unit": "%"}, {"measurement": "IC50", "setting": "[23]", "result": 22, "unit": "nM"}, {"measurement": "inhibition", "setting": "[24]", "result": 7.77, "unit": "%"}, {"measurement": "inhibition", "setting": "[25]", "result": 2.63, "unit": "%"}, {"measurement": "inhibition", "setting": "[26]", "result": -7.9, "unit": "%"}, {"measurement": "inhibition", "setting": "[27]", "result": 0.68, "unit": "%"}, {"measurement": "inhibition", "setting": "[28]", "result": -7.53, "unit": "%"}, {"measurement": "inhibition", "setting": "[29]", "result": 5.74, "unit": "%"}, {"measurement": "inhibition", "setting": "[30]", "result": 16.2, "unit": "%"}, {"measurement": "inhibition", "setting": "[31]", "result": 1.15, "unit": "%"}]}]}
